How the values were obtained:
Y641N EZH2 = Y641N EZH2 (Homo sapiens, UniProt Q15910, Y641N); test: Assay for Y641N EZH2 (as the EZH2 assay, H3K27Me2 oligonucleosomes as substrate); format: biochemical; settings: Y641N EZH2 mutant, reconstituted H3K27Me2 oligonucleosomes as substrate
Experimental: (§1) EZH2 Assay: Assays were carried out by mixing rPRC2 together with biotinylated oligonucleosome substrates in the presence of the radio-labeled enzyme co-factor, S-adenosyl-L-methionine (^3H SAM) (Perkin Elmer) and monitoring the enzymatically mediated transfer of tritiated methyl groups from ^3H SAM to histone lysine residues. The amount of resulting tritiated methyl histone product was measured by first capturing the biotinylated oligonucleosomes in streptavidin (SAV) coated FlashPlates (Perkin Elmer), followed by a wash step to remove unreacted ^3H SAM, and then counting on a TopCount NXT 384 well plate scintillation counter (Perkin Elmer). The final assay conditions for EZH2 were as follows: 50 mM Tris Buffer pH 8.5, 1 mM DTT, 69 μM Brij-35 detergent, 5.0 mM MgCl2, 0.1 mg/mL BSA, 0.2 μM ^3H SAM, 0.2 μM biotinylated oligonucleosomes, 3.6 μM H3K27me3 peptide and 2 nM EZH2.
(§2) Compound IC50 measurements were obtained as follows: Compounds were first dissolved in 100% DMSO as 10 mM stock solutions. Ten point dose response curves were generated by dispensing varying amounts of the 10 mM compound solution in 10 wells of the 384 well plate (Echo; Labcyte), pure DMSO was then used to backfill the wells to insure all wells have the same amount of DMSO. A 12.5 μL volume of the HMT enzyme, H3K27me3 peptide and oligonucleosome substrate in assay buffer was added to each well of the assay plate using a Multidrop Combi (ThermoFisher). Compounds were pre-incubated with the enzyme for 20 min, followed by initiation of the methyltransferase reaction by addition of 12.5 μL of ^3H SAM in assay buffer (final volume=25 μL). The final concentrations of compounds ranged from a top default concentration of 80 μM down to 0.16 μM in ten 2-fold dilution steps. Reactions were carried out for 60 minutes and quenched with 20 μL per well of 1.96 mM SAH, 50 mM Tris pH 8.5, 200 mM EDTA. Stopped reactions were transferred to SAV coated Flashplates (Perkin Elmer), incubated for 120 min, washed with a plate washer, and then read on the TopCount NXT (1.0 min/well) to measure the amount of methyl histone product formed during the reaction. The amount of methyl histone product was compared with the amount of product formed in the 0% and 100% inhibition control wells allowing the calculation of % Inhibition in the presence of the individual compounds at various concentrations. IC50's were computed using a 4 parameter fit non-linear curve fitting software package (XLFIT, part of the database package, ActivityBase (IDBS)) where the four parameters were IC50, Hill slope, pre-transitional baseline (0% INH), and post-transitional baseline (100% INH); with the latter two parameters being fixed to zero and 100%, respectively, by default.
Assay for Y641N EZH2 was performed as above using reconstituted H3K27Me2 oligonucleosomes as substrate.

EZH2 = EZH2 (Homo sapiens, UniProt Q15910); test: EZH2 Assay (3H SAM methyl transfer, rPRC2, FlashPlate); format: biochemical; settings: rPRC2, biotinylated oligonucleosomes, 0.2 μM 3H SAM, 2 nM EZH2
Experimental: as §1, §2

[1] = system: H3K27me3 mark in Hela cells expressing wild type EZH2; test: H3K27me3 MSD Hela Assay; format: cell-based; settings: read-out: H3K27me3_MSD_HeLa (EC50)
Experimental: H3K27me3 MSD Hela Assay. Trypsinized HeLa cells were counted and diluted in 10% DMEM (Life Technologies, Cat. #10569) to 5000 cells/75 μL. Seventy-five μL of cells were place in each well of a 96-well flat-bottomed plate and incubated at 37° C. for 4 hours. Twenty-five μL of test compound (at various concentrations) was added to the cells and incubation continued at 37° C. for 96 hours. Media was then removed and the cells rinsed once with ice cold PBS. Forty μL of ice-cold MSD Buffer AT (10 mM HEPES, pH 7.9, 5 mM MgCl2, 0.25M sucrose, Benzonase (1:10000), 1% Triton X-100 supplemented with fresh 1× Protease Inhibitor cocktail and 1 mM 4-(2-Aminoethyl)benzenesulfonyl fluoride hydrochloride (AEBSF)) was added to each well and the plates placed on ice for 30 minutes. Ten μL of 5M NaCl was then added to each well and incubation on ice continued for another 15 minutes. The material in each well was suspended pipetting up and down and then transferred to a new 96 well plate. The emptied wells were rinsed with 150 uL ice-cold 20 mM Tris pH 7.5, 1 mM EDTA, 1 mM EGTA, supplemented with fresh 1× Protease Inhibitor cocktail and 1 mM AEBSF (“NO salt NO detergent buffer) and transferred to the respective wells in the new plate. Three hundred μL of NO Salt NO detergent buffer was then added to each well of lysates and the plates frozen at −80° C.
On the same day, an appropriate number of MSD standard bind 96-well plates were coated with 30 μL/well of total H3 capture antibody (Millipore, Cat # MAB3422) at 1 μg/mL concentration in PBS. The antibody solution was evenly distributed first by tapping gently on the sides of the plates and then by shaking the plates for a few minutes at 1000 rpm. Antibody coated plates were stored at 4° C. overnight.
The next day the lysates are thawed to RT. The antibody coated MSD plates are washed 3× with TBS-T (Tris-buffered saline (Fisher Scientific, Cat #BP2471-1)+0.2% Tween-20). One-hundred fifty μL of 5% Blocker A in TBS-T is added to each well. The wells are covered and shaken on a shaker at RT for one hour. The Blocker A step is repeated a second time. After removing the blocker, 25 μL of cell lysate is transferred into each antibody coated well. The plates are shaken for 2 hours at RT, the lysate removed and the plates again washed with Blocker A in TBS-T. Twenty-five μL of appropriate freshly prepared antibody mix (including both primary and secondary antibodies) is added to each well and the plates shaken for 1 hour at RT.
Both H3 antibodies were obtained from Cell Signalling (Cat #s 4499 and 9733). The goat anti-rabbit antibody was obtained from Meso-Scale Discovery (Cat #R32AB-1).
The antibody mix was then removed and the wells washed with Blocker A. One hundred-fifty μL of freshly prepared 1×MSD Read Buffer (Meso-Scale Discovery; Cat #R927C-2) was then added to each well and the plates read on a MSD Sector 2400 Plate Reader.
(§3) Data was analyzed using Assay Assistant (Constellation Pharmaceuticals In-house product) and Activity Base (IDBS Ltd, Surrey, UK) template. Data files were imported to Assay Assistant and assay conditions were specified. A unique Analysis ID was created and the data files exported to Activity Base. An analysis template was created on Activity Base to measure dose-dependent inhibition of H3K27me3 mark and cell viability respectively. Readout of DMSO wells were used to normalize the data. Resulting curves were fitted using Activity base software Model 205 (IDBS Ltd, Surrey, UK). The data was checked for quality, validated and integrated in excel format using SARview (IDBS Ltd, Surrey, UK).

[2] = system: H3K27me3 mark in Hela cells expressing wild type EZH2; test: H3K27me3 Alpha Hela Assay (AlphaLISA); format: cell-based; settings: Homo sapiens, 72 hrs, read-out: H3K27me3_Alpha_HeLa (EC50)
Experimental: H3K27me3 Alpha Hela Assay (AlphaLISA). Ten different doses of each test compound (in a series of 3-fold dilutions) were plated in duplicate 384-well tissue culture treated plates (Catalog #781080; Greiner Bio One; Monroe, N.C.). Hela cells grown in culture were trypsinized and counted using a Countess® cell counter (Catalog # C10281; Life Technologies, Grand Island, N.Y.). Cell were diluted to 67,000 cells per mL in 10% DMEM (Catalog #10569-010 Life Technologies, Grand Island, N.Y.) and 15 μL (1,000 cells) were plated into each well using the Biotek MicroFlo™ Select Dispenser (BioTek Instruments, Inc. Vermont, USA),) of the 384-well plate. Plates were incubated at 37° C./5% CO2 for 72 hrs. One of the duplicate plates was processed for HeLa assay and the other for viability.
To the plate processed for AlphaLISA was added 5 μL per well Cell-Histone Lysis buffer (1×) (Catalog # AL009F1 Perkin Elmer; Waltham, Mass.) and the plate was incubated at RT for 30 minutes on a plate shaker with low speed (Model#4625-Q Thermo Scientific; Waltham, Mass.). Then, 10 μL per well Histone Extraction buffer (catalog # AL009F2; Perkin Elmer; Waltham, Mass.) was added and the plate further incubated at RT for 20 min on plate shaker with low speed. To each well was then added 10 μL per well of a 5× mix of anti-K27me3 acceptor beads plus Biotinylated anti-Histone H3 (C-ter) Antibody (diluted to 3 nM final) (Catalog #AL118 Perkin Elmer; Waltham, Mass.). Dilution of the acceptor beads and then anti-Histone H3 was with 1× Histone Detection buffer (Catalog # AL009F3 Perkin Elmer; Waltham, Mass.) which was produced diluted from the 10× stock provided. The plate was sealed with an aluminum plate sealer and incubated at 23° C. for 60 min. We then added 10 μL 5× solution of Streptavidin Donor beads (Catalog #6760002 Perkin Elmer; Waltham, Mass.) (20 μg/mL final in 1× Histone Detection Buffer), sealed the plate with Aluminum plate sealer and incubated at 23° C. for 30 min. The plates were then read using an EnVision-Alpha Reader (model #2104 Perkin Elmer; Waltham, Mass.).
as §3, with “Data from both assays was analyzed” for “Data was analyzed”

Sequence of EZH2 (Q15910 whole entry): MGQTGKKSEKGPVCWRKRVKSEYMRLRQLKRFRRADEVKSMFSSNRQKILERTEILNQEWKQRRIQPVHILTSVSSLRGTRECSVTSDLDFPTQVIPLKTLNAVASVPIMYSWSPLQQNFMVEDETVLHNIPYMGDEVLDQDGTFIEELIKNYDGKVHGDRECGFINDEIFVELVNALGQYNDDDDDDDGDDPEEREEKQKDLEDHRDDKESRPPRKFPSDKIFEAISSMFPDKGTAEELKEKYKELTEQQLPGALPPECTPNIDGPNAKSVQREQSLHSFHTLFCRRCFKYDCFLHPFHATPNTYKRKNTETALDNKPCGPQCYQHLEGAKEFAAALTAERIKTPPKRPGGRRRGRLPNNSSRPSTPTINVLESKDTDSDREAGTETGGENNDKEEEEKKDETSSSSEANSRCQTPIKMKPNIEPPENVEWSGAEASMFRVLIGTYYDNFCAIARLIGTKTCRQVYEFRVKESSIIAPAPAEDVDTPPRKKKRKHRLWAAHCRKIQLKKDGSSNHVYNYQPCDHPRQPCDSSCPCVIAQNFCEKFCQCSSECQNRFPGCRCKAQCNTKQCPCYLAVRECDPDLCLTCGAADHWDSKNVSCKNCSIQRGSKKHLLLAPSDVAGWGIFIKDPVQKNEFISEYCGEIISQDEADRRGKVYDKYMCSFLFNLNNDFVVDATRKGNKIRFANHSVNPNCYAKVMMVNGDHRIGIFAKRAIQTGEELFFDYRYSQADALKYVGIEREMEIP
Sequence of EZH2 (O75530 whole entry partner): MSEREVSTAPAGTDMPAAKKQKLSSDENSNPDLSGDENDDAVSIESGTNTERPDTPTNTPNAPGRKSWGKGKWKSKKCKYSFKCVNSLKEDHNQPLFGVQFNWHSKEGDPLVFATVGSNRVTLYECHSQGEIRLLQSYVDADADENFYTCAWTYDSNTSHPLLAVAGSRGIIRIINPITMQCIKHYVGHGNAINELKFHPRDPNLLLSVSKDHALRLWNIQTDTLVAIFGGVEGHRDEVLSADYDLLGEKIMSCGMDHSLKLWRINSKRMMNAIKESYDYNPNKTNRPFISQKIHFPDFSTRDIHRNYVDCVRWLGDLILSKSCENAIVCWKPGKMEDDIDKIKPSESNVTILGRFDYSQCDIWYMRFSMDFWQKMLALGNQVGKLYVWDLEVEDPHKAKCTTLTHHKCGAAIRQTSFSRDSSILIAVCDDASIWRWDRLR
Sequence of EZH2 (Q15022 whole entry partner): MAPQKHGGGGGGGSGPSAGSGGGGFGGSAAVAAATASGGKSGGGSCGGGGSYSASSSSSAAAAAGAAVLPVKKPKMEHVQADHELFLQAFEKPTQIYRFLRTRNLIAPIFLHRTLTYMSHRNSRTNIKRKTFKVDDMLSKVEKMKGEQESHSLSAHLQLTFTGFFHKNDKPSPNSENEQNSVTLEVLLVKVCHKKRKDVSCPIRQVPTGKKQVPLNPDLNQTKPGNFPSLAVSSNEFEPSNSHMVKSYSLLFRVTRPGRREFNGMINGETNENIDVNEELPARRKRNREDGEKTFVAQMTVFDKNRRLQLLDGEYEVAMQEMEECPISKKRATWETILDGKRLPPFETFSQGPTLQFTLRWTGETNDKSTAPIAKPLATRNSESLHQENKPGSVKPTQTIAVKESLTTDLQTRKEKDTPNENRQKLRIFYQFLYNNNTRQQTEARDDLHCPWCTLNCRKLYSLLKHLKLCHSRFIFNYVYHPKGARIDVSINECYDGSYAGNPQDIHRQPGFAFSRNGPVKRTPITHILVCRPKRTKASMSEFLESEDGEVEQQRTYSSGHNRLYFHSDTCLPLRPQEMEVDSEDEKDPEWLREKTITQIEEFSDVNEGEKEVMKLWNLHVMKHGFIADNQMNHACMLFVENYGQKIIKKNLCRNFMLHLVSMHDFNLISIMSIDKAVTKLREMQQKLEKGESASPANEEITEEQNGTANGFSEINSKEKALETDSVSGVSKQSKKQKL
Sequence of Y641N EZH2 (Q15910 whole entry Y641N): as the sequence (Q15910 whole entry) above, with Y641N counted along it
Sequence of Y641N EZH2 (O75530 whole entry partner): as the sequence (O75530 whole entry partner) above
Sequence of Y641N EZH2 (Q15022 whole entry partner): as the sequence (Q15022 whole entry partner) above

Row | Structure (SMILES) | IC50 (Y641N EZH2) [nM] | IC50 (EZH2) [nM] | EC50 ([1]; Homo sapiens, HeLa, 96 h) [nM] | EC50 ([1]; 96 hours) [nM] | EC50 [2] [nM]
1 | COc1cc(C)[nH]c(=O)c1CNC(=O)c1c(C)c(C(C)C2CC2)n2ncccc12 (racemic) [Compound 102, (±)-7-(1-cyclopropylethyl)-N-((4-methoxy-6-methyl-2-oxo-1,2-dihydropyridin-3-yl)methyl)-6-methylpyrrolo[1,2-b]pyridazine-5-carboxamide] | < 100 | < 100 | 400 to 2000 | – | –
2 | COc1cc(C)[nH]c(=O)c1CNC(=O)c1c(C)c(C(C)NS(C)(=O)=O)n2ncccc12 (racemic) [Compound 112, (±)-N-((4-methoxy-6-methyl-2-oxo-1,2-dihydropyridin-3-yl)methyl)-6-methyl-7-(1-(methylsulfonamido)ethyl)pyrrolo[1,2-b]pyridazine-5-carboxamide] | 100 to 1000 | < 100 | 2000 to 10000 | – | –
3 | COc1cc(C)[nH]c(=O)c1CNC(=O)c1c(C)c(C(C)c2cccnc2)n2ncccc12 (racemic) [Compound 113, (±)-N-((4-methoxy-6-methyl-2-oxo-1,2-dihydropyridin-3-yl)methyl)-6-methyl-7-(1-(pyridin-3-yl)ethyl)pyrrolo[1,2-b]pyridazine-5-carboxamide] | < 100 | < 100 | < 400 | – | –
4 | COc1cc(C)[nH]c(=O)c1CNC(=O)c1c(C)c(C(C)c2ccccc2)n2ncccc12 (single isomer, unassigned) [Compound 106, (R or S)-N-((4-methoxy-6-methyl-2-oxo-1,2-dihydropyridin-3-yl)methyl)-6-methyl-7-(1-phenylethyl)pyrrolo[1,2-b]pyridazine-5-carboxamide] | – | – | – | < 400 | –
5 | COc1cc(C)[nH]c(=O)c1CNC(=O)c1c(C)c(C(C)C2CCN(CC(C)(C)F)CC2)n2ncccc12 (stereo not shown) [Compound 144, 7-(1-(1-(2-fluoro-2-methylpropyl)piperidin-4-yl)ethyl)-N-((4-methoxy-6-methyl-2-oxo-1,2-dihydropyridin-3-yl)methyl)-6-methylpyrrolo[1,2-b]pyridazine-5-carboxamide] | 100 to 1000 | < 100 | – | – | < 400

The next lines start with the values.

Row | IC50 (Y641N EZH2) [nM] | IC50 (EZH2) [nM] | EC50 ([1]; Homo sapiens, HeLa, 96 h) [nM] | EC50 ([1]; 96 hours) [nM] | EC50 [2] [nM] | Structure (SMILES)
6 | 100 to 1000 | < 100 | 400 to 2000 | – | – | COc1cc(C)[nH]c(=O)c1CNC(=O)c1c(C)c(C(C)N(C)S(C)(=O)=O)n2ncccc12 (racemic) [Compound 103, (±)-N-((4-methoxy-6-methyl-2-oxo-1,2-dihydropyridin-3-yl)methyl)-6-methyl-7-(1-(N-methylmethylsulfonamido)ethyl)pyrrolo[1,2-b]pyridazine-5-carboxamide]
7 | 100 to 1000 | < 100 | – | 2000 to 10000 | – | CCN(C(C)c1c(C)c(C(=O)NCc2c(OC)cc(C)[nH]c2=O)c2cccnn12)S(C)(=O)=O (single isomer, unassigned) [Compound 107, (R or S)-7-(1-(N-ethylmethylsulfonamido)ethyl)-N-((4-methoxy-6-methyl-2-oxo-1,2-dihydropyridin-3-yl)methyl)-6-methylpyrrolo[1,2-b]pyridazine-5-carboxamide]
8 | 100 to 1000 | < 100 | – | 400 to 2000 | – | CCN(C(C)c1c(C)c(C(=O)NCc2c(OC)cc(C)[nH]c2=O)c2cccnn12)S(C)(=O)=O (single isomer, unassigned) [Compound 108, (R or S)-7-(1-(N-ethylmethylsulfonamido)ethyl)-N-((4-methoxy-6-methyl-2-oxo-1,2-dihydropyridin-3-yl)methyl)-6-methylpyrrolo[1,2-b]pyridazine-5-carboxamide]

Source: US9745305B2, “Modulators of methyl modifying enzymes, compositions and uses thereof” (Constellation Pharmaceuticals, Inc., priority 2013, dated 2017)
